Laboratory results published in article PMC11292009, “Mapping protein binding sites by photoreactive fragment pharmacophores” (Communications Chemistry, 2024).

Test system: T1, Kras G12D protein / SOS1 exchange domain
T1 construct: Cytoskeleton, Inc. (SOS1 exchange domain only) GE02
Experiment: Kras-SOS exchange assay (MANT-GDP)
Type: biochemical
Details: for Relative fluorescence intensity: PhP072 500 uM, no irradiation
Experimental: MANT-GDP loading assay: Kras^G12D protein was first buffer exchanged into low magnesium buffer (20 mM HEPES-NaOH (pH 7.5), 50 mM NaCl, 0.5 mM MgCl2) using a NAP5 column (catalog no.: 17-0583-1, Cytiva). The proteins were then incubated with 20-fold molar excess of N-methylanthraniloyl (MANT)-GDP (catalog no.: 69244, Sigma-Aldrich) in loading buffer (50 mM NaCl, 20 mM HEPES-NaOH [pH 7.5], 0.5 mM MgCl2, 10 mM EDTA, and 1 mM Dithiothreitol (DTT)) in a total volume of 200 μL at 20 °C for 90 min. The reaction was stopped by adding MgCl2 to a final concentration of 10 mM, then incubated at 20 °C for 30 min. The unbound MANT-GDP was removed using the NAP-5 column equilibrated with nucleotide exchange buffer (40 mM HEPES-NaOH (pH 7.5), 50 mM NaCl, 10 mM MgCl2, 2 mM DTT).
MANT-GDP exchange assay: First the MANT-GDP bound Kras G12D protein (in a final 1 μM molar concentration) was preincubated with the inhibitor molecules for 60 min. After the preincubation the samples were exposed to UV light for 10 min with a wavelength of 366 nm. The UV-treated MANT-GDP Kras-inhibitor mix was loaded into a black 384 well microplate. The nucleotide exchange reaction was initiated by adding 100 fold molar excess of GppNHp (catalog no.: G0635, Sigma-Aldrich), a non-hydrolyzable GTP analog and the SOS1 exchange domain (catalog no.: GE02, Cytoskeleton, Inc.) protein in 0.5 μM final concentration. The change in fluorescence intensity was measured every 30 s in room temperature for 60 min on an EnSpire plate reader (PerkinElmer, Inc.). The measured fluorescence values were fitted to a single exponential function by using GraphPad Prism 8 software.

Structure (SMILES): Cc1ncc(CO)c(CNC(=O)CCC2(C)N=N2)c1O [PhP072, Cc1ncc(CO)c(c1O)CNC(=O)CCC2(C)N=N2]
- Relative fluorescence intensity (0 sec): 1
- Relative fluorescence intensity (30 sec): 1.013
- Relative fluorescence intensity (60 sec): 0.9959
- Relative fluorescence intensity (90 sec): 0.9972
- Relative fluorescence intensity (120 sec): 0.9718
- Relative fluorescence intensity (210 sec): 0.9336
- Relative fluorescence intensity (240 sec): 0.9413
- Relative fluorescence intensity (270 sec): 0.9207
- Relative fluorescence intensity (300 sec): 0.9231
- Relative fluorescence intensity (330 sec): 0.889
- Relative fluorescence intensity (360 sec): 0.9144
- Relative fluorescence intensity (390 sec): 0.8755
- Relative fluorescence intensity (420 sec): 0.8829
- Relative fluorescence intensity (450 sec): 0.8817
- Relative fluorescence intensity (480 sec): 0.8573
- Relative fluorescence intensity (510 sec): 0.8562
- Relative fluorescence intensity (540 sec): 0.8393
- Relative fluorescence intensity (570 sec): 0.8479
- Relative fluorescence intensity (600 sec): 0.8268
- Relative fluorescence intensity (630 sec): 0.8298
- Relative fluorescence intensity (660 sec): 0.82
- Relative fluorescence intensity (690 sec): 0.8367
- Relative fluorescence intensity (720 sec): 0.8123
- Relative fluorescence intensity (750 sec): 0.8188
- Relative fluorescence intensity (780 sec): 0.7895
- Relative fluorescence intensity (810 sec): 0.8173
- Relative fluorescence intensity (840 sec): 0.8044
- Relative fluorescence intensity (870 sec): 0.8078
- Relative fluorescence intensity (900 sec): 0.796
- Relative fluorescence intensity (930 sec): 0.7898
- Relative fluorescence intensity (960 sec): 0.7738
- Relative fluorescence intensity (990 sec): 0.7911
- Relative fluorescence intensity (1020 sec): 0.7808
- Relative fluorescence intensity (1050 sec): 0.7917
- Relative fluorescence intensity (1080 sec): 0.7685
- Relative fluorescence intensity (1110 sec): 0.7829
- Relative fluorescence intensity (1140 sec): 0.763
- Relative fluorescence intensity (1170 sec): 0.7869
- Relative fluorescence intensity (1200 sec): 0.7802
- Relative fluorescence intensity (1230 sec): 0.7626
- Relative fluorescence intensity (1260 sec): 0.7487
- Relative fluorescence intensity (1290 sec): 0.7649
- Relative fluorescence intensity (1320 sec): 0.7515
- Relative fluorescence intensity (1350 sec): 0.7769
- Relative fluorescence intensity (1380 sec): 0.7498
- Relative fluorescence intensity (1410 sec): 0.7689
- Relative fluorescence intensity (1440 sec): 0.7375
- Relative fluorescence intensity (1470 sec): 0.7324
- Relative fluorescence intensity (1500 sec): 0.7377
- Relative fluorescence intensity (1530 sec): 0.7512
- Relative fluorescence intensity (1560 sec): 0.7561
- Relative fluorescence intensity (1590 sec): 0.7642
- Relative fluorescence intensity (1620 sec): 0.7532
- Relative fluorescence intensity (1650 sec): 0.7322
- Relative fluorescence intensity (1680 sec): 0.7337
- Relative fluorescence intensity (1710 sec): 0.7447
- Relative fluorescence intensity (1740 sec): 0.7262
- Relative fluorescence intensity (1770 sec): 0.7004
- Relative fluorescence intensity (1800 sec): 0.7223
- Relative fluorescence intensity (1830 sec): 0.7275
- Relative fluorescence intensity (1860 sec): 0.7142
- Relative fluorescence intensity (1890 sec): 0.7142
- Relative fluorescence intensity (1920 sec): 0.7251
- Relative fluorescence intensity (1950 sec): 0.7143
- Relative fluorescence intensity (1980 sec): 0.7167
- Relative fluorescence intensity (2010 sec): 0.7199
- Relative fluorescence intensity (2040 sec): 0.7182
- Relative fluorescence intensity (2070 sec): 0.7197
- Relative fluorescence intensity (2100 sec): 0.7234
- Relative fluorescence intensity (2130 sec): 0.7107
- Relative fluorescence intensity (2160 sec): 0.709
- Relative fluorescence intensity (2190 sec): 0.6857
- Relative fluorescence intensity (2220 sec): 0.7212
- Relative fluorescence intensity (2250 sec): 0.7309
- Relative fluorescence intensity (2280 sec): 0.698
- Relative fluorescence intensity (2310 sec): 0.6941
- Relative fluorescence intensity (2340 sec): 0.715
- Relative fluorescence intensity (2370 sec): 0.7148
- Relative fluorescence intensity (2400 sec): 0.6907
- Relative fluorescence intensity (2430 sec): 0.6865
- Relative fluorescence intensity (2460 sec): 0.6802
- Relative fluorescence intensity (2490 sec): 0.7113
- Relative fluorescence intensity (2520 sec): 0.7022
- Relative fluorescence intensity (2550 sec): 0.6719
- Relative fluorescence intensity (2580 sec): 0.6958
- Relative fluorescence intensity (2910 sec): 0.6843
- Relative fluorescence intensity (2940 sec): 0.6708
- Relative fluorescence intensity (2970 sec): 0.6872
- Relative fluorescence intensity (3000 sec): 0.6826
- Relative fluorescence intensity (3030 sec): 0.6877
- Relative fluorescence intensity (3060 sec): 0.6798
- Relative fluorescence intensity (3090 sec): 0.6889
- Relative fluorescence intensity (3120 sec): 0.6845
- Relative fluorescence intensity (3150 sec): 0.6654
- Relative fluorescence intensity (3180 sec): 0.6759
- Relative fluorescence intensity (3210 sec): 0.6861
- Relative fluorescence intensity (3240 sec): 0.6538
- Relative fluorescence intensity (3270 sec): 0.6954
- Relative fluorescence intensity (3300 sec): 0.6785
- Relative fluorescence intensity (3330 sec): 0.6776
- normalized signal, Kras-SOS exchange (Figure 4c PhP072 irradiation) (Php072 500 uM, irradiation, time 0 sec): 1
